Measurements published in patent US11045448B2, “Piperidines as covalent menin inhibitors” (THE REGENTS OF THE UNIVERSITY OF MICHIGAN, priority 2017, dated 2021).

Tests used:
MOLM13 = assay: 7-day proliferation assay (WST-8), MOLM13; format: cell-based; conditions: Homo sapiens, MOLM-13, 168 h; Table 5; MOLM13; 7 days; read-out: IC50 in cell growth inhibition
Experimental: (§1) The effect of representative Compounds of the Disclosure on cell viability was determined in a 7-day proliferation assay. Cells were maintained in the appropriate culture medium with 10% FBS at 37° C. and an atmosphere of 5% CO2.
(§2) Cells were seeded in 96-well flat bottom (Corning COSTAR, Corning, N.Y., cat #3595) at a density of 2,000-3,000 cells/well in 100 μl of culture medium. Compounds were serially diluted in the appropriate medium, and 100 μl of the diluted compounds were added to the appropriate wells of the cell plate. After the addition of compounds, the cells were incubated at 37° C. in an atmosphere of 5% CO2 for 7 days. Cell viability was determined using the WST (2-(2-methoxy-4-nitrophenyl)-3-(4-nitrophenyl)-5-(2,4-disulfophenyl)-2H-tetrazolium, monosodium salt) Cell Counting-8 Kit (Dojindo Molecular Technologies, Inc., Rockville, Md.) according to the manufacturers' instructions.
(§3) WST-8 reagent was added to each well at a final concentration of 10% (v/v), and then the plates were incubated at 37° C. for 1-2 hours for color development. The absorbance was measured at 450 nm using a SPECTRAmax PLUS plate reader (Molecular Devices, Sunnyvale, Calif.). The readings were normalized to the DMSO-treated cells and the half maximal inhibitory concentration (IC50) was calculated by nonlinear regression (four parameters sigmoid fitted with variable slope, least squares fit, and no constraint) analysis using the GraphPad Prism 5 software (GraphPad Software, La Jolla, Calif.).

menin protein = menin protein (Homo sapiens (Human), UniProt O00255); assay: Fluorescence polarization (FP) competitive binding assay, menin binding affinity; conditions: menin protein 4 nM, probe 2 nM, room temperature 30 minutes
Experimental: A fluorescence polarization (FP) competitive binding assay was used to determine the binding affinities of representative menin inhibitors. A FAM labeled fluorescent probe was designed and synthesized based on a MLL1 peptide (FAM-MM2). Equilibrium dissociation constant (Kd) value of FAM-MM2 to menin protein was determined from protein saturation experiments by monitoring the total fluorescence polarization of mixtures composed with the fluorescent probe at a fixed concentration and the protein with increasing concentrations up to full saturation. Serial dilutions of the protein were mixed with FAM-MM2 to a final volume of 200 μl in the assay buffer (PBS with 0.02% Bovine γ-Globulin and 4% DMSO. 0.01% Triton X-100 was added right before assays). Final FAM-MM2 concentration was 2 nM. Plates were incubated at room temperature for 30 minutes with gentle shaking to assure equilibrium. FP values in millipolarization units (mP) were measured using the Infinite M-1000 plate reader (Tecan U.S., Research Triangle Park, N.C.) in Microfluor 1 96-well, black, v-bottom plates (Thermo Scientific, Waltham, Mass.) at an excitation wavelength of 485 nm and an emission wavelength of 530 nm.
The IC50, see Table 3, of representative Compounds of the Disclosure were determined in a competitive binding experiment. Mixtures of 5 μl of the tested compounds in DMSO and 195 μl of preincubated protein/probe complex solution in the assay buffer were added into assay plates which were incubated at room temperature for 30 minutes with gentle shaking. Final concentration of the menin protein was 4 nM, and final probe concentration is 2 nM. Negative controls containing protein/probe complex only (equivalent to 0% inhibition), and positive controls containing only free probes (equivalent to 100% inhibition), were included in each assay plate. FP values were measured as described above. IC50 values were determined by nonlinear regression fitting of the competition curves.

MV4-11 = assay: 7-day proliferation assay (WST-8), MV4-11; format: cell-based; conditions: Homo sapiens, 168 h; Table 5; MV4-11; 7 days; read-out: IC50 in cell growth inhibition
Experimental: as §1, §2, §3

Chain of menin protein (O00255 whole entry): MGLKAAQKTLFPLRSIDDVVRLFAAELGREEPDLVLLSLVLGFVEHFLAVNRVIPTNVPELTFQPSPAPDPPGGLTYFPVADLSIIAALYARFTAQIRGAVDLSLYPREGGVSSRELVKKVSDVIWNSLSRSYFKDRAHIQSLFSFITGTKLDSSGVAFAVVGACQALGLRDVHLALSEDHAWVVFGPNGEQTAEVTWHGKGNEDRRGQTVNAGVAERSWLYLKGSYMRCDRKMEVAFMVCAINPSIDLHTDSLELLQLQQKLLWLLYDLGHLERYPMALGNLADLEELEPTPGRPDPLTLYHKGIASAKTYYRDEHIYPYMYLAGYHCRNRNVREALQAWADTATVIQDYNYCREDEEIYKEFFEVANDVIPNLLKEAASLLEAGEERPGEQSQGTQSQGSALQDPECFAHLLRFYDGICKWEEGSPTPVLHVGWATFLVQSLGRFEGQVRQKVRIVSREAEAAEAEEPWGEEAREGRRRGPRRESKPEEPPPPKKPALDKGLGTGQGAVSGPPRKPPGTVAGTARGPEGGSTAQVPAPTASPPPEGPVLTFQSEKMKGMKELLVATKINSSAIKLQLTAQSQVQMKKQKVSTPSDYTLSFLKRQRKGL

IC50 (MOLM13) [nM] | IC50 (menin protein) [nM] | IC50 (MV4-11) [nM] | Compound
31 | 2 | 6 | CCc1nccn1C[C@@](c1cccc(F)c1)(C1CCN(CC2CN(c3ccc(S(=O)(=O)C4CN(C(=O)/C=C/CN(C)C)C4)cc3)C2)CC1)[C@H]1CCC[C@@H]1NC(=O)OC [Cpd. No. 67, methyl ((1S,2R)-2-((S)-1-(1-((1-(4-((1-((E)-4-(dimethylamino)but-2-enoyl)azetidin-3-yl)sulfonyl)phenyl)azetidin-3-yl)methyl)piperidin-4-yl)-2-(2-ethyl-1H-imidazol-1-yl)-1-(3-fluorophenyl)ethyl)cyclopentyl)carbamate]
22 | 2 | 1 | COC(=O)N[C@H]1CCC[C@@H]1[C@](Cn1ccnn1)(c1cccc(F)c1)C1CCN(CC2CN(c3ccc(S(=O)(=O)C4CN(C(=O)/C=C/CN(C)C)C4)cc3)C2)CC1 [Cpd. No. 72, methyl ((1S,2R)-2-((S)-1-(1-((1-(4-((1-((E)-4-(dimethylamino)but-2-enoyl)azetidin-3-yl)sulfonyl)phenyl)azetidin-3-yl)methyl)piperidin-4-yl)-1-(3-fluorophenyl)-2-(1H-1,2,3-triazol-1-yl)ethyl)cyclopentyl)carbamate]
1400 | > 2000 | 525 | COC(=O)N[C@H]1CCC[C@@H]1[C@@](C#N)(c1cccc(F)c1)C1CCN(CC2CN(c3ccc(S(=O)(=O)C4CN(C(=O)/C=C/CN(C)C)C4)cc3)C2)CC1 [Cpd. No. 60, methyl ((1S,2R)-2-((R)-cyano(1-((1-(4-((1-((E)-4-(dimethylamino)but-2-enoyl)azetidin-3-yl)sulfonyl)phenyl)azetidin-3-yl)methyl)piperidin-4-yl)(3-fluorophenyl)methyl)cyclopentyl)carbamate]
6 | 2 | 0.1 | CCc1nccn1C[C@@](c1cccc(F)c1)(C1CCN(CC2CN(c3ccc(S(=O)(=O)C4CN(C(=O)/C=C/CN5CCCCC5)C4)cc3)C2)CC1)[C@H]1CCC[C@@H]1NC(=O)OC [Cpd. No. 73, methyl ((1S,2R)-2-((S)-2-(2-ethyl-1H-imidazol-1-yl)-1-(3-fluorophenyl)-1-(1-((1-(4-((1-((E)-4-(piperidin-1-yl)but-2-enoyl)azetidin-3-yl)sulfonyl)phenyl)azetidin-3-yl)methyl)piperidin-4-yl)ethyl)cyclopentyl)carbamate]
291 | 10 | 65 | C=CC(=O)N1CCCC(S(=O)(=O)c2ccc(N3CC(CN4CCC([C@@](C#N)(c5cccc(F)c5)[C@H]5CCC[C@@H]5NC(=O)OC)CC4)C3)cc2)C1 (stereo partly drawn) [Cpd. No. 78, methyl ((1S,2R)-2-((1S)-(1-((1-(4-((1-acryloylpiperidin-3-yl)sulfonyl)phenyl)azetidin-3-yl)methyl)piperidin-4-yl)(cyano)(3-fluorophenyl)methyl)cyclopentyl)carbamate]
1220 | 11 | 91 | C=CC(=O)N1CCC(S(=O)(=O)c2ccc(N3CC(CN4CCC([C@@](C#N)(c5cccc(F)c5)[C@H]5CCC[C@@H]5NC(=O)OC)CC4)C3)cc2)C1 (stereo partly drawn) [Cpd. No. 77, methyl ((1S,2R)-2-((1S)-(1-((1-(4-((1-acryloylpyrrolidin-3-yl)sulfonyl)phenyl)azetidin-3-yl)methyl)piperidin-4-yl)(cyano)(3-fluorophenyl)methyl)cyclopentyl)carbamate]
313 | 5 | 117 | N#C[C@@](c1cccc(F)c1)(C1CCN(CC2CN(c3ccc(S(=O)(=O)C4CC4)cc3)C2)CC1)[C@H]1CCC[C@@H]1NC(=O)CCl [Cpd. No. 76, 2-chloro-N-((1S,2R)-2-((S)-cyano(1-((1-(4-(cyclopropylsulfonyl)phenyl)azetidin-3-yl)methyl)piperidin-4-yl)(3-fluorophenyl)methyl)cyclopentyl)acetamide]
 | 1 |  | CCc1nccn1C[C@@](c1cccc(F)c1)(C1CCN(CC2(F)CN(c3ccc(S(=O)(=O)C4CN(C(=O)/C=C/CN(C)C)C4)cc3)C2)CC1)[C@H]1CCC[C@@H]1NC(=O)OC [Cpd. No. 66, methyl ((1S,2R)-2-((S)-1-(1-((1-(4-((1-((E)-4-(dimethylamino)but-2-enoyl)azetidin-3-yl)sulfonyl)phenyl)-3-fluoroazetidin-3-yl)methyl)piperidin-4-yl)-2-(2-ethyl-1H-imidazol-1-yl)-1-(3-fluorophenyl)ethyl)cyclopentyl)carbamate]
 | 300 |  | C=CC(=O)Nc1cccc(S(=O)(=O)c2ccc(N3CC(CN4CCC([C@](C#N)(c5cccc(F)c5)[C@H]5CCC[C@@H]5OC(=O)NC)CC4)C3)cc2)c1 [Cpd. No. 4, (1S,2R)-2-((R)-(1-((1-(4-((3-acrylamidophenyl)sulfonyl)phenyl)azetidin-3-yl)methyl)piperidin-4-yl)(cyano)(3-fluorophenyl)methyl)cyclopentyl methylcarbamate]
 | 2200 |  | C=CC(=O)Nc1ccc(S(=O)(=O)c2ccc(N3CC(CN4CCC([C@](C#N)(c5cccc(F)c5)[C@H]5CCC[C@@H]5OC(=O)NC)CC4)C3)cc2)cc1 [Cpd. No. 11, (1S,2R)-2-((R)-(1-((1-(4-((4-acrylamidophenyl)sulfonyl)phenyl)azetidin-3-yl)methyl)piperidin-4-yl)(cyano)(3-fluorophenyl)methyl)cyclopentyl methylcarbamate]
 | 2 |  | COC(=O)N[C@H]1CCC[C@@H]1[C@](C#N)(c1cccc(F)c1)C1CCN(CC2CN(c3ccc(S(=O)(=O)c4cccc(NC(=O)/C=C/CN(C)C)c4)cc3)C2)CC1 [Cpd. No. 63, methyl ((1S,2R)-2-((S)-cyano(1-((1-(4-((3-((E)-4-(dimethylamino)but-2-enamido)phenyl)sulfonyl)phenyl)azetidin-3-yl)methyl)piperidin-4-yl)(3-fluorophenyl)methyl)cyclopentyl)carbamate]
 | > 10000 |  | C=CC(=O)N1CC(S(=O)(=O)c2ccc(OCCOc3ccc([C@@](C#N)(c4cccc(F)c4)[C@H]4CCC[C@@H]4NC(=O)OC)cc3)cc2)C1 [Cpd. No. 64, methyl ((1S,2R)-2-((R)-(4-(2-(4-((1-acryloylazetidin-3-yl)sulfonyl)phenoxy)ethoxy)phenyl)(cyano)(3-fluorophenyl)methyl)cyclopentyl)carbamate]
 | 5 |  | C/C=C/C(=O)N1CC(S(=O)(=O)c2ccc(N3CC(CN4CCC([C@@](C#N)(c5cccc(F)c5)[C@H]5CCC[C@@H]5NC(=O)OC)CC4)C3)cc2)C1 [Cpd. No. 56, methyl ((1S,2R)-2-((S)-(1-((1-(4-((1-((E)-but-2-enoyl)azetidin-3-yl)sulfonyl)phenyl)azetidin-3-yl)methyl)piperidin-4-yl)(cyano)(3-fluorophenyl)methyl)cyclopentyl)carbamate]
 | 1070 |  | C=CS(=O)(=O)N[C@H]1CCC[C@@H]1[C@](C#N)(c1cccc(F)c1)C1CCN(CC2CN(c3ccc(C#N)cc3)C2)CC1 [Cpd. No. 79, N-((1S,2R)-2-((S)-cyano(1-((1-(4-cyanophenyl)azetidin-3-yl)methyl)piperidin-4-yl)(3-fluorophenyl)methyl)cyclopentyl)ethenesulfonamide]
 | 9 |  | COC(=O)N[C@H]1CCC[C@@H]1[C@](C#N)(c1cccc(F)c1)C1CCN(CC2(F)CN(c3ccc(S(=O)(=O)C4CN(C(=O)/C=C/CN(C)C)C4)cc3)C2)CC1 [Cpd. No. 69, methyl ((1S,2R)-2-((S)-cyano(1-((1-(4-((1-((E)-4-(dimethylamino)but-2-enoyl)azetidin-3-yl)sulfonyl)phenyl)-3-fluoroazetidin-3-yl)methyl)piperidin-4-yl)(3-fluorophenyl)methyl)cyclopentyl)carbamate]
